Data taken from PMC5971037, “Synthesis and evaluation of antimicrobial, antitubercular and anticancer activities of 2-(1-benzoyl-1H-benzo[d]imidazol-2-ylthio)-N-substituted acetamides” (Chemistry Central Journal, 2018).
Values after ≈ are worked out from the molar mass of the structure shown. Read-outs that look alike come from different tables or passages of the source.

Legend:
[1] = test system: HCT116 (human colorectal) cell line; assay: Sulforhodamine-B (SRB) cytotoxicity assay; type: cell-based
[2] = test system: M. tuberculosis H37Rv (NCFT/TB/537); assay: Well diffusion susceptibility test (zone of inhibition); type: cell-based; settings: Mycobacterium tuberculosis, 672 h, read-out: Diameter of zone of inhibition against H37Rv (NCFT/TB/537), wells of 8 mm, 50 µg/ml test compound, 25 µg/ml standard drug, 4 weeks, NA = no activity
M. tuberculosis H37Rv [3] = assay: MIC by microplate alamar blue assay; type: cell-based; settings: Mycobacterium tuberculosis, NA = no activity, read-out: MIC against M. tuberculosis H37Rv
M. tuberculosis H37Rv [4] = assay: Minimum lethal concentration (MLC); type: cell-based; settings: Mycobacterium tuberculosis, NA = no activity, read-out: MLC against M. tuberculosis H37Rv
B. cereus [5] = assay: MBC by subculturing; type: cell-based
Protocol: (§1) The minimum bactericidal concentration (MBC) and minimum fungicidal concentration (MFC) of the synthesized benzimidazole derivatives was determined by subculturing 100 µl of culture from each tube that remained clear in MIC determination onto sterilized petri-plates containing fresh agar medium. The petri-plates were incubated and analyzed for microbial growth visually.

S. typhi [6] = assay: MBC by subculturing; type: cell-based; settings: Salmonella enterica, read-out: MBC S. typhi
Protocol: as §1

E. coli [7] = assay: MBC by subculturing; type: cell-based; settings: Escherichia coli
Protocol: as §1

S. aureus [8] = assay: MBC by subculturing; type: cell-based; settings: Staphylococcus aureus
Protocol: as §1

B. subtilis [9] = assay: MBC by subculturing; type: cell-based
Protocol: as §1

B. subtilis [10] = assay: Tube dilution MIC; settings: Bacillus subtilis, 24 h, read-out: MIC B. subtilis
[11] = target: mycobacterial isocitrate lyase (Mycobacterium tuberculosis, UniProt P9WKK7); assay: Mycobacterial isocitrate lyase (ICL) assay; type: biochemical, M. tuberculosis H37Rv; settings: read-out: Percent inhibition of enzyme, M. ICL activity
Protocol: The compounds found potent in in vivo evaluation were assayed for inhibition of mycobacterial enzymes viz., isocitrate lyase, pantothenate synthetase and chorismate mutase.
Isocitrate lyase activity was assayed according to the protocol reported by Dixon and Kornberg (glyoxylate phenyl hydrazone formation) at 10 μM of the compounds.

A. niger [12] = assay: microbe, parasite or virus in culture; settings: Aspergillus niger, 168 h, read-out: MIC A. niger
E. coli [13] = assay: Tube dilution MIC; settings: Escherichia coli, 24 h, read-out: MIC E. coli
B. cereus [14] = assay: Tube dilution MIC; settings: Bacillus cereus, 24 h, read-out: MIC B. cereus
[15] = test system: Gram positive as well as Gram negative bacterial species; assay: Tube dilution MIC, bacteria overall; type: cell-based
C. albicans [16] = assay: MFC by subculturing; type: cell-based
Protocol: as §1

A. niger [17] = assay: MFC by subculturing; type: cell-based
Protocol: as §1

C. albicans [18] = assay: microbe, parasite or virus in culture; settings: Candida albicans, 48 h, read-out: MIC C. albicans
S. aureus [19] = assay: Tube dilution MIC; settings: Staphylococcus aureus, 24 h, read-out: MIC S. aureus
[20] = In vivo LD50, ED50 and toxic dose in mice models; settings: mouse, dose that killed 50% of the mice population within the group
Protocol: The LD50 and ED50 were determined for the active compounds in mice models infected with Mycobacterium H37Rv (Table 4). […] Thus, ED50 of 1.34 mg/kg was considered safe for each of the compounds. It was observed that this dose was effective and safe for mice in different groups before infecting the mice models with specific TB bacteria as no mortality of any single animal was recorded.
The LD50 (lethal dose) and ED50 (optimum/effective dose) doses were determined for the active compounds in mice models infected with Mycobacterium H37Rv via ethical permission no., NCFT/EC/16/2313 assigned to Collaborative Research Group (CRG), NCFT, New Delhi, India.

[21] = test system: MCF7 (human breast cancer) cell line; assay: Sulforhodamine-B (SRB) cytotoxicity assay; type: cell-based
S. typhi [22] = assay: Tube dilution MIC; type: cell-based; settings: Salmonella enterica, 24 h, read-out: MIC S. typhi

Sequence of mycobacterial isocitrate lyase (P9WKK7 whole entry): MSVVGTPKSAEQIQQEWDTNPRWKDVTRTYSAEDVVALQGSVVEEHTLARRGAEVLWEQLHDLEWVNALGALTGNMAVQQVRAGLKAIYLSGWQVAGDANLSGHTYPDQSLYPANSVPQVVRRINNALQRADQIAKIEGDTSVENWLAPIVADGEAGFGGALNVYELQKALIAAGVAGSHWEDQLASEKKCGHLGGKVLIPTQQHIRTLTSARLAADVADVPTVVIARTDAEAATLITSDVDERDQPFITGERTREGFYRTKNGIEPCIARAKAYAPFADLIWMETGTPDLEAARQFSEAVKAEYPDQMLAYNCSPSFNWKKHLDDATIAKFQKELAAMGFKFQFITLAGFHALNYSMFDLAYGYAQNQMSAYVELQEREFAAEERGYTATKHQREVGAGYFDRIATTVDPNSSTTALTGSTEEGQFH

## O=C(CSc1nc2ccccc2n1C(=O)c1ccccc1)Nc1cccc(Br)c1 [Compound 8, 2-(1-Benzoyl-1H-benzo[d]imidazol-2-ylthio)-N-(3-bromophenyl)acetamide]
[1]; HCT-116, read-out: IC50 HCT116
  IC50: 107 µM
[2]
  zone of inhibition at 50 µg/mL: > 20 mm
M. tuberculosis H37Rv [3]
  MIC: 12.5 µg/mL (≈ 26.8 µM)
M. tuberculosis H37Rv [4]
  MBC: 25 µg/mL (≈ 53.6 µM)
B. cereus [5]; Bacillus cereus, read-out: MBC B. cereus
  MBC: > 50 µg/mL
S. typhi [6]
  MBC: > 50 µg/mL
E. coli [7]
  MBC: > 50 µg/mL
S. aureus [8]
  MBC: 50 µg/mL (≈ 107 µM)
B. subtilis [9]; Bacillus subtilis, read-out: MBC B. subtilis
  MBC: > 50 µg/mL
B. subtilis [10]
  MIC: 27 µM (≈ 12.6 µg/mL)
[11]
  inhibition at 10 µM: 59.5%
A. niger [12]
  MIC: 27 µM (≈ 12.6 µg/mL)
E. coli [13]
  MIC: 27 µM (≈ 12.6 µg/mL)
B. cereus [14]
  MIC: 27 µM (≈ 12.6 µg/mL)
[15]
  MIC against Gram positive as well as Gram negative bacterial species: 0.027 µM/ml
C. albicans [16]; Candida albicans, read-out: MFC C. albicans
  MFC: 50 µg/mL (≈ 107 µM)
A. niger [17]; Aspergillus niger, read-out: MFC A. niger
  MFC: > 50 µg/mL
C. albicans [18]
  MIC: 13 µM (≈ 6.06 µg/mL)
S. aureus [19]
  MIC: 27 µM (≈ 12.6 µg/mL)
[20]
  LD50: 1.88 mg/kg
[21]; MCF7, read-out: IC50 MCF7
  IC50: 68.6 µM
S. typhi [22]
  MIC: 27 µM (≈ 12.6 µg/mL)

## O=C(CSc1nc2ccccc2n1C(=O)c1ccccc1)Nc1ccccc1Br [Compound 7, 2-(1-Benzoyl-1H-benzo[d]imidazol-2-ylthio)-N-(2-bromophenyl)acetamide]
[1]; HCT-116, SRB assay, HCT116 cell line, read-out: IC50 HCT116
  IC50: 96.5 µM
[2]
  zone of inhibition at 50 µg/mL: 10 mm
M. tuberculosis H37Rv [3]
  MIC: 15 µg/mL (≈ 32.2 µM)
M. tuberculosis H37Rv [4]
  MBC: 28 µg/mL (≈ 60 µM)
B. cereus [5]; Bacillus cereus; read-out: MBC B. cereus
  MBC: > 50 µg/mL
S. typhi [6]
  MBC: > 50 µg/mL
E. coli [7]
  MBC: 50 µg/mL (≈ 107 µM)
S. aureus [8]
  MBC: 50 µg/mL (≈ 107 µM)
B. subtilis [9]; Bacillus subtilis; read-out: MBC B. subtilis
  MBC: > 50 µg/mL
B. subtilis [10]
  MIC: 27 µM (≈ 12.6 µg/mL)
A. niger [12]
  MIC: 27 µM (≈ 12.6 µg/mL)
E. coli [13]
  MIC: 27 µM (≈ 12.6 µg/mL)
B. cereus [14]
  MIC: 27 µM (≈ 12.6 µg/mL)
[15]
  MIC against Gram positive as well as Gram negative bacterial species: 0.027 µM/ml
C. albicans [16]; Candida albicans; read-out: MFC C. albicans
  MFC: 50 µg/mL (≈ 107 µM)
A. niger [17]; Aspergillus niger; read-out: MFC A. niger
  MFC: > 50 µg/mL
C. albicans [18]
  MIC: 27 µM (≈ 12.6 µg/mL)
S. aureus [19]
  MIC: 27 µM (≈ 12.6 µg/mL)
[21]; SRB assay, MCF7 cell line, read-out: IC50 MCF7
  IC50: 55.8 µM
S. typhi [22]
  MIC: 27 µM (≈ 12.6 µg/mL)
